Laboratory results taken from ChEMBL document CHEMBL4842376, “Design, synthesis and biological evaluation of novel hybrids targeting mTOR and HDACs for potential treatment of hepatocellular carcinoma” (Eur J Med Chem, 2021).

Experiments:
Format in all cases: functional, cell-based
[1] = tested on: HepG2; test: Antiproliferative activity against human HepG2 cells assessed as inhibition of cell growth measured after 72 hrs by MTT assay; details: HepG2, 72 h
[2] = tested on: CNE-2; test: cells; details: Homo sapiens, CNE-2, 72 h
Description: Antiproliferative activity against human CNE-2 cells assessed as inhibition of cell growth measured after 72 hrs by MTT assay

[3] = tested on: HCT-116; test: cells; details: Homo sapiens, HCT-116, 72 h
Description: Antiproliferative activity against human HCT-116 cells assessed as inhibition of cell growth measured after 72 hrs by MTT assay

[4] = tested on: MDA-MB-231; test: cells; details: Homo sapiens, MDA-MB-231, 72 h
Description: Antiproliferative activity against human MDA-MB-231 cells assessed as inhibition of cell growth measured after 72 hrs by MTT assay

[5] = tested on: MCF7; test: cells; details: Homo sapiens, MCF7, 72 h
Description: Antiproliferative activity against human MCF7 cells assessed as inhibition of cell growth measured after 72 hrs by MTT assay

[6] = tested on: A549; test: cells; details: Homo sapiens, A549, 72 h
Description: Antiproliferative activity against human A549 cells assessed as inhibition of cell growth measured after 72 hrs by MTT assay

[7] = tested on: SK-HEP1; test: cells; details: Homo sapiens, SK-HEP1, 72 h
Description: Antiproliferative activity against human SK-HEP1 cells assessed as inhibition of cell growth measured after 72 hrs by MTT assay

[8] = tested on: Hep 3B2; test: cells; details: Homo sapiens, Hep3B, 72 h
Description: Antiproliferative activity against human Hep3B cells assessed as inhibition of cell growth measured after 72 hrs by MTT assay

[9] = tested on: PLC-PRF-5; test: Antiproliferative activity against human PLC-PRF-5 cells assessed as inhibition of cell growth measured after 72 hrs by MTT assay; details: PLC-PRF-5, 72 h
[10] = tested on: HeLa; test: cells; details: Homo sapiens, 72 h
Description: Antiproliferative activity against human HeLa cells assessed as inhibition of cell growth measured after 72 hrs by MTT assay

[11] = tested on: Huh-7; test: cells; details: Homo sapiens, Huh-7, 72 h
Description: Antiproliferative activity against human Huh-7 cells assessed as inhibition of cell growth measured after 72 hrs by MTT assay

Row | IC50 [1] [µM] | IC50 [2] [µM] | IC50 [3] [µM] | IC50 [4] [µM] | IC50 [5] [µM] | IC50 [6] [µM] | IC50 [7] [µM] | IC50 [8] [µM] | IC50 [10] [µM] | IC50 [11] [µM] | Structure (SMILES) | IC50 [9] [µM]
1 | > 150 | > 150 | > 150 | > 150 | > 150 | > 150 |  |  |  |  | Nc1ncnc2c1c(-c1cnc3[nH]ccc3c1)nn2CC(=O)NO | 
2 | 12.9 | > 50 | 63.7 | > 100 | > 150 | > 150 | > 150 | > 50 | > 150 | > 100 | Nc1ncnc2c1c(-c1cnc3[nH]ccc3c1)nn2CCCCCC(=O)NO | > 150
3 | > 50 | > 50 | 19.6 | 19.5 | > 50 | > 100 |  |  | > 150 |  | Nc1nc2cc(-c3nn(CCCC(=O)NO)c4ncnc(N)c34)ccc2o1 | 
4 | > 150 | > 150 | > 100 | > 50 | > 100 | > 150 |  |  | > 150 |  | Nc1nc2cc(-c3nn(CCC(=O)NO)c4ncnc(N)c34)ccc2o1 | 
5 | 36.6 | > 150 | > 150 | > 50 | > 150 | > 150 |  |  | > 150 |  | Nc1ncnc2c1c(-c1cnc3[nH]ccc3c1)nn2CCCCC(=O)NO | 
6 | > 150 | > 150 | > 150 | > 150 | > 150 | > 150 |  |  |  |  | Nc1ncnc2c1c(-c1cnc3[nH]ccc3c1)nn2CCC(=O)NO | 
7 | > 50 | > 150 | > 150 | > 150 | > 150 | > 150 |  |  |  |  | Nc1ncnc2c1c(-c1cnc3[nH]ccc3c1)nn2CCCC(=O)NO | 
8 | > 150 | 12.2 | 11.4 | 6.31 | > 100 | 27.7 |  |  | > 150 |  | Nc1nc2cc(-c3nn(CC(=O)NO)c4ncnc(N)c34)ccc2o1 | 
